Measurements: patent US9296778B2, “3′,5′-cyclic phosphate prodrugs for HCV infection” (Idenix Pharmaceuticals, Inc., priority 2012, dated 2016)
Where two headings read alike, the source gives them in different places.

Columns and labels:
HCV genotype 1b replicon = experiment: HCV Replicon Assay; assay type: cell-based; details: Zluc cells (Huh-7-derived, HCV genotype 1b replicon, luciferase reporter), 72 hours, read-out: HCV Replicon EC50
Procedure: Huh-7-derived cell line (Zluc) that harbors an HCV genotype 1b replicon and a luciferase reporter gene was grown in Dulbecco's Modified Eagle Medium (DMEM) supplemented with 10% fetal bovine serum, 2 mM GlutaMAX, 1% MEM nonessential amino acids, 100 IU/mL penicillin, 100 μg/mL streptomycin, and 0.5 mg/mL Geneticin® (G418). For dose response testing the cells were seeded in 96-well plates at 7.5×10^3 cells per well in a volume of 50 μL, and incubated at 37° C./5% CO2. Drug solutions were made up freshly in Huh-7 media as 2× stocks. Ten additional 5-fold dilutions were prepared from these stocks in DMEM without G418. At least three hours after Zluc cells were seeded, drug treatment was initiated by adding 50 μL of drug dilutions to the plates in duplicate. Final concentrations of drug ranged from 100 μM to […]. Cells were then incubated at 37° C./5% CO2. Alternatively, compounds were tested at two concentrations (1 μM and 10 μM). […] For this, media was removed from the plates via gentle tapping. Fifty microliters of ONE-glo luciferase assay reagent was added to each well. The plates were shaken gently for 3 min at room temperature and luminescence was measured on a Victor^3 V 1420 multilabel counter (Perkin Elmer) with a 1 second read time using a 700 nm cut-off filter. The EC50 values were calculated from dose response curves from the resulting best-fit equations determined by Microsoft Excel and XLfit 4.1 software. When screening at two fixed concentrations, the results were expressed as % inhibition at 1 μM and 10 μM.

Zluc cells = experiment: cytotoxicity evaluation (CellTiter-Blue Cell Viability Assay); details: read-out: HCV Replicon CC50; Zluc cells, CellTiter-Blue
in vitro = details: human, HCV Replicon CC50, Zluc cells, CellTiter-Blue
fresh human hepatocytes = experiment: Release of active metabolite in fresh human hepatocytes; assay type: in vitro ADME; details: 10 μM compound; for FHH TP Cmax: fresh human hepatocytes; for FHH TP AUC: fresh human hepatocytes, 6, 24 and 48 hours
Procedure: Plates of fresh human and mouse hepatocytes were obtained on ice. The medium was removed and replaced with hepatocyte culture medium (William's E supplemented with penicillin-streptomycin, 1% L-glutamine, 1% insulin-transferrin-selenium and 0.1 μM Dexamethasone (Invitrogen) or with Invitro GRO HI medium complemented with Torpedo antibiotics (Celsis)). Cells were left overnight in an incubator at 37° C. to acclimatize to culture and the medium.
Hepatocyte incubations were conducted at a final volume of 0.5 mL hepatocyte culture medium/well (0.8 million cells/well for human and 0.5 million cells/well for mouse; 12 well plate no overlay, collagen coat). Culture medium from overnight incubation of cells was removed and replaced with fresh medium, pre-warmed to 37° C., containing 10 μM of test compound from a stock solution in DMSO (final DMSO concentration was 0.1%). At each specific time point, incubation medium was removed and cell monolayers were carefully washed two times with ice-cold PBS. Following the last wash, all PBS was carefully removed and 1.0 mL of extraction solution (ice-cold 70% methanol/30% water) added. Cells were scraped off and suspended in the extraction solution, transferred to 2 mL polypropylene microfuge tubes and intracellular contents extracted overnight at −20° C.
After the overnight treatment the cellular extracts were prepared by centrifugation at 16,000×g for 10 min to remove cellular debris. The remaining sample was then dried using a refrigerated centrivap concentrator. Dry extracts were reconstituted in 1000 μL of HPLC-grade water and centrifuged at 16,000×g for 10 min. Aliquots (100 μL each) of the supernatant were transferred into a 96 well plate and internal standard (4 ng/mL final concentration) was added as the internal standard (IS) for LC-MS/MS analysis.
The incubation time points were 6, 24 and 48 hours for human hepatocytes and 1, 4, 8, 12 and 24 hours for mouse hepatocytes.

CCOc1nc(N)nc2c1ncn2[C@@H]1O[C@@H]2COP(=O)(OCCSC(=O)C(C)(C)COC(C)=O)O[C@H]2[C@@]1(C)OC(C)=O (single isomer, unassigned; diastereomer 1) [Compound 19 Diastereomer 1]
EC50 (HCV genotype 1b replicon): < 250 nM | CC50 (Zluc cells): < 50000 nM

COc1nc(N)nc2c1ncn2[C@@H]1O[C@@H]2COP(=O)(OCC(=O)OC(C)C)O[C@H]2[C@@]1(C)F (stereo partly drawn) [Compound 26]
EC50 (HCV genotype 1b replicon; Hepatitis C virus, 72 h): < 250 nM | CC50 (in vitro): > 50000 nM

COC(=O)c1ccccc1COP1(=O)OC[C@H]2O[C@@H](n3cnc4c(OC)nc(N)nc43)[C@](C)(O)[C@@H]2O1 (stereo partly drawn) [Compound 33]
EC50 (HCV genotype 1b replicon; Hepatitis C virus, 72 h): < 250 nM | CC50 (in vitro): < 50000 nM

CCOC(=O)N[C@@H](C)COP1(=O)OC[C@H]2O[C@@H](n3cnc4c(OCC)nc(N)nc43)[C@](C)(F)[C@@H]2O1 (stereo partly drawn) [Compound 11]
EC50 (HCV genotype 1b replicon; Hepatitis C virus, 72 h): < 250 nM | CC50 (in vitro): > 50000 nM

CCOC(=O)OC(C)OP1(=O)OC[C@H]2O[C@@H](n3cnc4c(OC)nc(N)nc43)[C@](C)(O)[C@@H]2O1 (stereo partly drawn) [Compound 34]
EC50 (HCV genotype 1b replicon; Hepatitis C virus, 72 h): < 250 nM | CC50 (in vitro): < 50000 nM

CCOc1nc(N)nc2c1ncn2[C@@H]1O[C@@H]2COP(=O)(OCCC(=O)OC(C)C)O[C@H]2[C@@]1(C)F (stereo partly drawn) [Compound 21]
EC50 (HCV genotype 1b replicon; Hepatitis C virus, 72 h): < 250 nM | CC50 (in vitro): > 50000 nM

CCOC(=O)COP1(=O)OC[C@H]2O[C@@H](n3cnc4c(OCC)nc(N)nc43)[C@](C)(F)[C@@H]2O1 (single isomer, unassigned; diastereomer 2) [Compound 7 Diastereomer 2]
EC50 (HCV genotype 1b replicon): < 250 nM

CCOc1nc(N)nc2c1ncn2[C@@H]1O[C@@H]2COP(=O)(OCCSC(=O)C(C)(C)COC(C)=O)O[C@H]2[C@@]1(C)OC(C)=O (single isomer, unassigned; diastereomer 2) [Compound 19 Diastereomer 2]
EC50 (HCV genotype 1b replicon): < 250 nM | CC50 (Zluc cells): < 50000 nM

CCOc1nc(N)nc2c1ncn2[C@@H]1O[C@@H]2COP(=O)(OC[C@H](NC(=O)OC)C(=O)OC(C)C)O[C@H]2[C@@]1(C)F (stereo partly drawn) [Compound 15]
EC50 (HCV genotype 1b replicon; Hepatitis C virus, 72 h): < 250 nM | FHH TP Cmax (fresh human hepatocytes): 36 pmol/mill cells | FHH TP AUC (fresh human hepatocytes): 1335 pmol · hr/mill cells | CC50 (in vitro): > 50000 nM

COc1nc(N)nc2c1ncn2[C@@H]1O[C@@H]2COP(=O)(OCCSSCCO)O[C@H]2[C@@]1(C)O (stereo partly drawn) [Compound 37]
EC50 (HCV genotype 1b replicon; Hepatitis C virus, 72 h): < 250 nM | CC50 (in vitro): < 50000 nM

COc1nc(N)nc2c1ncn2[C@@H]1O[C@@H]2COP(=O)(OCC(=O)OC(C)C)O[C@H]2[C@@]1(C)OC(C)=O (stereo partly drawn) [Compound 32]
EC50 (HCV genotype 1b replicon; Hepatitis C virus, 72 h): < 250 nM | CC50 (in vitro): < 50000 nM

CC(C)(CO)C(=O)SCCOP1(=O)OC[C@H]2O[C@@H](n3cnc4c(=O)[nH]c(N)nc43)[C@](C)(F)[C@@H]2O1 (single isomer, unassigned; diastereomer 1) [Compound 17 Diastereomer 1]
EC50 (HCV genotype 1b replicon): 250 to 1000 nM | CC50 (Zluc cells): > 50000 nM

COc1nc(N)nc2c1ncn2[C@@H]1O[C@@H]2COP(=O)(OCC(=O)OCc3ccccc3)O[C@H]2[C@@]1(C)O (stereo partly drawn) [Compound 27]
EC50 (HCV genotype 1b replicon; Hepatitis C virus, 72 h): < 250 nM | CC50 (in vitro): < 50000 nM

CCOc1nc(N)nc2c1ncn2[C@@H]1O[C@@H]2COP(=O)(OCCSC(=O)C(C)(C)CO)O[C@H]2[C@@]1(C)OC(C)=O (single isomer, unassigned; diastereomer 1) [Compound 16 Diastereomer 1]
EC50 (HCV genotype 1b replicon): < 250 nM | CC50 (Zluc cells): < 50000 nM

CCOc1nc(N)nc2c1ncn2[C@@H]1O[C@@H]2COP(=O)(OC[C@H](C)NC(=O)OCC(C)C)O[C@H]2[C@@]1(C)F (single isomer, unassigned; diastereomer 1) [Compound 12 Diastereomer 1]
EC50 (HCV genotype 1b replicon): < 250 nM | CC50 (Zluc cells): > 50000 nM

COc1nc(N)nc2c1ncn2[C@@H]1O[C@@H]2COP(=O)(OCC(=O)OC(C)C)O[C@H]2[C@@]1(C)F (single isomer, unassigned; diastereomer 1) [Compound 26 Diastereomer 1]
FHH TP Cmax (fresh human hepatocytes): BLD^a | FHH TP AUC (fresh human hepatocytes): BLD^a

COc1nc(N)nc2c1ncn2[C@@H]1O[C@@H]2COP(=O)(OCC(=O)OC(C)C)O[C@H]2[C@@]1(C)O (stereo partly drawn) [Compound 28]
EC50 (HCV genotype 1b replicon; Hepatitis C virus, 72 h): < 250 nM | CC50 (in vitro): < 50000 nM

CCOc1nc(N)nc2c1ncn2[C@@H]1O[C@@H]2COP(=O)(OCCC(=O)OC(C)C)O[C@H]2[C@@]1(C)O (single isomer, unassigned; diastereomer 1) [Compound 22 Diastereomer 1]
EC50 (HCV genotype 1b replicon): < 250 nM | CC50 (Zluc cells): > 50000 nM | FHH TP Cmax (fresh human hepatocytes): 44 pmol/mill cells | FHH TP AUC (fresh human hepatocytes): 1247 pmol · hr/mill cells

CC(C)(CO)C(=O)SCCOP1(=O)OC[C@H]2O[C@@H](n3cnc4c(=O)[nH]c(N)nc43)[C@](C)(F)[C@@H]2O1 (single isomer, unassigned; diastereomer 2) [Compound 17 Diastereomer 2]
EC50 (HCV genotype 1b replicon): < 250 nM | CC50 (Zluc cells): < 50000 nM

CCOc1nc(N)nc2c1ncn2[C@@H]1O[C@@H]2COP(=O)(OCCCNC(=O)[C@H](O)C(C)(C)CO)O[C@H]2[C@@]1(C)O (stereo partly drawn) [Compound 39]
EC50 (HCV genotype 1b replicon; Hepatitis C virus, 72 h): < 250 nM | CC50 (in vitro): < 50000 nM

CCOC(=O)CCCOP1(=O)OC[C@H]2O[C@@H](n3cnc4c(OC)nc(N)nc43)[C@](C)(O)[C@@H]2O1 (stereo partly drawn) [Compound 29]
EC50 (HCV genotype 1b replicon): < 250 nM | CC50 (Zluc cells): < 50000 nM

CC(=O)OCC(C)(C)C(=O)SCCOP1(=O)OC[C@H]2O[C@@H](n3cnc4c(=O)[nH]c(N)nc43)[C@](C)(F)[C@@H]2O1 (single isomer, unassigned; diastereomer 1) [Compound 18 Diastereomer 1]
EC50 (HCV genotype 1b replicon): 250 to 1000 nM | CC50 (Zluc cells): > 50000 nM

CCOC(=O)[C@@H](C)OP1(=O)OC[C@H]2O[C@@H](n3cnc4c(OC)nc(N)nc43)C(C)(O)[C@@H]2O1 (stereo partly drawn) [Compound 30]
EC50 (HCV genotype 1b replicon; Hepatitis C virus, 72 h): 1000 to 10000 nM | CC50 (in vitro): > 50000 nM

CCOc1nc(N)nc2c1ncn2[C@@H]1O[C@@H]2COP(=O)(OCCCNC(=O)[C@@H]3OC(C)(C)OCC3(C)C)O[C@H]2[C@@]1(C)O (stereo partly drawn) [Compound 38]
EC50 (HCV genotype 1b replicon; Hepatitis C virus, 72 h): < 250 nM | CC50 (in vitro): > 50000 nM

CCOC(=O)C[C@@H](C)OP1(=O)OC[C@H]2O[C@@H](n3cnc4c(OC)nc(N)nc43)[C@](C)(O)[C@@H]2O1 (stereo partly drawn) [Compound 31]
EC50 (HCV genotype 1b replicon; Hepatitis C virus, 72 h): 250 to 1000 nM | CC50 (in vitro): > 50000 nM

CCOC(=O)CCCOP1(=O)OC[C@H]2O[C@@H](n3cnc4c(OC)nc(N)nc43)[C@](C)(O)[C@@H]2O1 (stereo partly drawn) [Compound 25]
EC50 (HCV genotype 1b replicon; Hepatitis C virus, 72 h): 250 to 1000 nM | CC50 (in vitro): > 50000 nM

CC(=O)OCC(C)(C)C(=O)SCCOP1(=O)OC[C@H]2O[C@@H](n3cnc4c(=O)[nH]c(N)nc43)[C@](C)(F)[C@@H]2O1 (single isomer, unassigned; diastereomer 2) [Compound 18 Diastereomer 2]
EC50 (HCV genotype 1b replicon): < 250 nM | CC50 (Zluc cells): < 50000 nM
